{"source": "patent US10894036B2", "about": "“Use of marizomib for the treatment of central nervous system (CNS) cancers” (Celgene International II Sàrl, priority 2016, dated 2021)", "key": {"20S Proteasome": {"test_system": "20S Proteasome", "test": "20S proteasome activity (% inhibition) in rodent brain", "type": "in vivo, mouse", "design": "20S Proteasome Activity (% Inhibition), Blood, Trough / 20S Proteasome Activity (% Inhibition), Blood, Peak (2 hr) / 20S Proteasome Activity (% Inhibition), Tumor, Trough / 20S Proteasome Activity (% Inhibition), Tumor, Peak (2 hr): concentration or dose not given beside the values", "conditions": "tumor-bearing mouse, IV; individual mice 1 and 2; listed as BTZ"}, "[1]": {"test_system": "malignant glioma stem-like cells", "test": "HIF1-α and VEGF levels in malignant glioma stem-like cells", "type": "cell-based"}, "[2]": {"test": "Phase 1b MRZ + TMZ (+RT) in newly diagnosed G4 MG: adverse events, DLT", "type": "in vivo, human", "protocol": "This is a Phase 1b, open-label, 3+3, dose-escalation followed by dose-expansion study in patients with newly diagnosed G4 MG who have not previously received any local or systemic therapy for their G4 MG. The study will examine the effect of the addition of MRZ to standard of care treatment utilizing two study arms: Concomitant Treatment in which MRZ will be combined with TMZ+RT and Adjuvant Treatment in which MRZ will be combined with TMZ. The study will be conducted in two Stages. In Stage 1 (Dose-Escalation): 3 to 6 evaluable patients per MRZ dose cohort will be enrolled in each study arm. […] A total of approximately 48 patients will be enrolled in Stages 1 and 2 combined. Patients may not be enrolled in more than 1 MRZ dose cohort per arm.\nConcomitant Treatment consists of a 6 week (42 day) treatment period, followed by a 4 (−1) week break from treatments. All patients will receive intravenous (IV) MRZ infusion on Days 1, 8, 15, 29, and 36 as a 10 minute infusion. IV hydration will be given prior to the infusion. Focal RT will be administered once daily, 5 days/week, for 30 doses over 6 weeks to a total dose of 60 Gy, starting on Day 1. TMZ will be administered once daily, 7 days/week, for 6 weeks, starting on Day 1, at a dose of 75 mg/m^2. Patients who complete Concomitant Treatment may continue on to Adjuvant Treatment.\nAll patients will receive IV MRZ infusion on Days 1, 8, and 15 as a 10 minute infusion, in 28-day cycles. IV hydration will be given prior to the infusion. TMZ will be administered daily for 5 consecutive days, starting on Day 1 of Cycle 1 (C1D1), at a dose of 150 mg/m^2. If tolerated in Cycle 1, the TMZ dose will be increased on Day 1 of Cycle 2 (C2D1) to a dose of 200 mg/m^2."}, "[3]": {"conditions": "patient 301-C202, action taken None"}}, "note": "Where “and” joins values, the source holds several entries; their conditions need not be identical. Identical values can stand only once."}
{"smiles": "CC(C)C[C@H](NC(=O)[C@H](Cc1ccccc1)NC(=O)c1cnccn1)B(O)O", "note": "[bortezomib, reference compound]", "values": [{"measurement": "20S Proteasome Activity (% Inhibition), Blood, Peak (2 hr)", "setting": "20S Proteasome", "value": "81% and 83%"}, {"measurement": "20S Proteasome Activity (% Inhibition), Blood, Trough", "setting": "20S Proteasome", "value": "18% and 13%"}, {"measurement": "20S Proteasome Activity (% Inhibition), Tumor, Peak (2 hr)", "setting": "20S Proteasome", "value": "83% and 93%"}, {"measurement": "20S Proteasome Activity (% Inhibition), Tumor, Trough", "setting": "20S Proteasome", "value": "64% and 41%"}, {"measurement": "HIF1-α and VEGF levels", "setting": "[1]", "value": "induces HIF1-α and VEGF levels"}]}
{"smiles": "Cn1nnc2c(C(N)=O)ncn2c1=O", "note": "[temozolomide, reference compound]", "values": [{"measurement": "Abdominal pain, Grade ≥3 TEAE, drug related", "setting": "[2]; human, in vivo", "value": "0 (0.0%)"}, {"measurement": "Confusional state, treatment-related TEAE, number of patients", "setting": "[2]; human, in vivo", "value": 0}, {"measurement": "Confusional state, treatment-related TEAE, percent of patients", "setting": "[2]; human, in vivo", "value": "(0.0%)"}, {"measurement": "Constipation, treatment-related TEAE, number of patients", "setting": "[2]; human, in vivo", "value": 3}, {"measurement": "Constipation, treatment-related TEAE, percent of patients", "setting": "[2]; human, in vivo", "value": "(15.0%)"}, {"measurement": "Decreased appetite, treatment-related TEAE, number of patients", "setting": "[2]; human, in vivo", "value": 4}, {"measurement": "Decreased appetite, treatment-related TEAE, percent of patients", "setting": "[2]; human, in vivo", "value": "(20.0%)"}, {"measurement": "Dehydration, Grade ≥3 TEAE, drug related", "setting": "[2]; human, in vivo", "value": "0 (0.0%)"}, {"measurement": "Diarrhoea, treatment-related TEAE, number of patients", "setting": "[2]; human, in vivo", "value": 2}, {"measurement": "Diarrhoea, treatment-related TEAE, percent of patients", "setting": "[2]; human, in vivo", "value": "(10.0%)"}, {"measurement": "Dizziness, treatment-related TEAE, number of patients", "setting": "[2]; human, in vivo", "value": 2}, {"measurement": "Dizziness, treatment-related TEAE, percent of patients", "setting": "[2]; human, in vivo", "value": "(10.0%)"}, {"measurement": "Dose reduction, reason Adverse Event", "setting": "[2]; human, in vivo", "value": "1 (5.0%)"}, {"measurement": "Fatigue, Grade ≥3 TEAE, drug related", "setting": "[2]; human, in vivo", "value": "1 (5.0%)"}, {"measurement": "Fatigue, treatment-related TEAE, number of patients", "setting": "[2]; human, in vivo", "value": 11}, {"measurement": "Fatigue, treatment-related TEAE, percent of patients", "setting": "[2]; human, in vivo", "value": "(55.0%)"}, {"measurement": "Hallucination, Grade ≥3 TEAE, drug related", "setting": "[2]; human, in vivo", "value": "0 (0.0%)"}, {"measurement": "Hallucination, treatment-related TEAE, number of patients", "setting": "[2]; human, in vivo", "value": 0}, {"measurement": "Hallucination, treatment-related TEAE, percent of patients", "setting": "[2]; human, in vivo", "value": "(0.0%)"}, {"measurement": "Headache, Grade ≥3 TEAE, drug related", "setting": "[2]; human, in vivo", "value": "0 (0.0%)"}, {"measurement": "Headache, treatment-related TEAE, number of patients", "setting": "[2]; human, in vivo", "value": 0}, {"measurement": "Headache, treatment-related TEAE, percent of patients", "setting": "[2]; human, in vivo", "value": "(0.0%)"}, {"measurement": "Insomnia, Grade ≥3 TEAE, drug related", "setting": "[2]; human, in vivo", "value": "0 (0.0%)"}, {"measurement": "Muscular weakness, treatment-related TEAE, number of patients", "setting": "[2]; human, in vivo", "value": 0}, {"measurement": "Muscular weakness, treatment-related TEAE, percent of patients", "setting": "[2]; human, in vivo", "value": "(0.0%)"}, {"measurement": "Musculoskeletal pain, Grade ≥3 TEAE, drug related", "setting": "[2]; human, in vivo", "value": "0 (0.0%)"}, {"measurement": "Nausea, treatment-related TEAE, number of patients", "setting": "[2]; human, in vivo", "value": 9}, {"measurement": "Nausea, treatment-related TEAE, percent of patients", "setting": "[2]; human, in vivo", "value": "(45.0%)"}, {"measurement": "Number of Patients with drug Discontinued", "setting": "[2]; human, in vivo", "value": 0}, {"measurement": "Number of Patients with ≥1 Dose Reduction", "setting": "[2]; human, in vivo", "value": "1 (5.0%)"}, {"measurement": "Ovarian cyst, Grade ≥3 TEAE, drug related", "setting": "[2]; human, in vivo", "value": "0 (0.0%)"}, {"measurement": "Pelvic infection, Grade ≥3 TEAE, drug related", "setting": "[2]; human, in vivo", "value": "0 (0.0%)"}, {"measurement": "Platelet count decreased, Grade ≥3 TEAE, drug related", "setting": "[2]; human, in vivo", "value": "1 (5.0%)"}, {"measurement": "Platelet count decreased, treatment-related TEAE, number of patients", "setting": "[2]; human, in vivo", "value": 3}, {"measurement": "Platelet count decreased, treatment-related TEAE, percent of patients", "setting": "[2]; human, in vivo", "value": "(15.0%)"}, {"measurement": "Rash maculo-papular, treatment-related TEAE, number of patients", "setting": "[2]; human, in vivo", "value": 3}, {"measurement": "Rash maculo-papular, treatment-related TEAE, percent of patients", "setting": "[2]; human, in vivo", "value": "(15.0%)"}, {"measurement": "Vomiting, Grade ≥3 TEAE, drug related", "setting": "[2]; human, in vivo", "value": "0 (0.0%)"}, {"measurement": "Vomiting, treatment-related TEAE, number of patients", "setting": "[2]; human, in vivo", "value": 7}, {"measurement": "Vomiting, treatment-related TEAE, percent of patients", "setting": "[2]; human, in vivo", "value": "(35.0%)"}, {"measurement": "SAE Dehydration, relationship to drug", "setting": "[2]; in vivo", "value": "Not Suspected/"}, {"measurement": "SAE Fatigue, relationship to drug", "setting": "[2]; in vivo", "value": "Not Suspected/"}, {"measurement": "SAE Hallucination, relationship to drug", "setting": "[2]; in vivo", "value": "Not Suspected/"}, {"measurement": "SAE Nausea, relationship to drug", "setting": "[2]; in vivo", "value": "Not Suspected/"}, {"measurement": "SAE Vomiting, relationship to drug", "setting": "[2]; in vivo", "value": "Not Suspected/"}, {"measurement": "SAE Nephrolithiasis, relationship to drug", "setting": "[2]; patient 104-C302, action taken None", "value": "Not Suspected/"}, {"measurement": "SAE Confusional state, relationship to drug", "setting": "[2]; patient 301-A202, action taken None", "value": "Not Suspected/"}, {"measurement": "SAE Ovarian cyst, relationship to drug", "setting": "[2]; patient 301-C202, action taken Dose Delayed", "value": "Not Suspected/"}, {"measurement": "SAE Convulsion, relationship to drug", "setting": "[2]; [3]", "value": "Not Suspected/"}, {"measurement": "SAE Pelvic infection, relationship to drug", "setting": "[2]; [3]", "value": "Not Suspected/"}]}
